# Measurements: US9278914B2, “SARMs and method of use thereof” (UNIVERSITY OF TENNESSEE RESEARCH FOUNDATION, priority 2004, dated 2016)
# Assays:
# [1] = target: CYP1A2 (Homo sapiens (Human), UniProt P05177); assay: In vitro CYP inhibition assay; assay type: biochemical
# Experimental: Averages (minus background) and IC50 values were calculated.
# [2] = Pharmacokinetics in beagle dogs; assay type: in vivo; conditions: dog, plasma
# [3] = tested on: finishing pigs; assay: Growth performance and carcass composition of finishing pigs; assay type: in vivo, pig; conditions: for lb FFL: fat free lean; for L side / R side: carcass; for lbs FFL/D: fat free lean gain per day
# Source text: Pigs were blocked by weight and allotted to one of four treatments with ten replicate pens per treatment. Pigs were housed with one pig per pen in an environmentally controlled finishing barn with 4 ft×4 ft slatted pens.
# All animals were fed a corn-soybean meal diet with 1% corn oil. […] Final SARM concentrations were 1, 3, and 10 ppm. All animals were fed their respective diets for the duration of the study.
# Pigs were allowed ad libitum access to feed and water. Pigs and feeders were weighed on day 7, 14, 21, and 28 to calculate average daily gain (ADG), average daily feed intake (ADFI), and feed-to-gain ratio (F/G or F:G). Each pen served as an experimental unit for all statistical analysis.
# Pigs were slaughtered at the Kansas State University Meats Laboratory at the end of the study for collection of individual carcass data. At 24 hours postmortem, the right side of the carcass was frozen at −40° C. for approximately […]. After freezing, sides were ground once through a grinder equipped with a 19 mm die, then mixed and ground through a second grinder equipped with a 9.5 mm die. A sub sample of ground carcass was then chemically analyzed to determine percentages of crude protein, moisture/dry matter, lipid, and ash. Carcass measurements were done on the left side of the carcass, and a sample of lean and fat was taken from the longissimus at approximately the 10th rib.
# The data were analyzed as a randomized complete-block design. Analysis of variance was performed by using the MIXED procedure of SAS. Linear and quadratic contrasts were used to evaluate the effects of increasing the level of the SARM on growth and carcass performance.
# CYP1A2, sequence (P05177 whole entry): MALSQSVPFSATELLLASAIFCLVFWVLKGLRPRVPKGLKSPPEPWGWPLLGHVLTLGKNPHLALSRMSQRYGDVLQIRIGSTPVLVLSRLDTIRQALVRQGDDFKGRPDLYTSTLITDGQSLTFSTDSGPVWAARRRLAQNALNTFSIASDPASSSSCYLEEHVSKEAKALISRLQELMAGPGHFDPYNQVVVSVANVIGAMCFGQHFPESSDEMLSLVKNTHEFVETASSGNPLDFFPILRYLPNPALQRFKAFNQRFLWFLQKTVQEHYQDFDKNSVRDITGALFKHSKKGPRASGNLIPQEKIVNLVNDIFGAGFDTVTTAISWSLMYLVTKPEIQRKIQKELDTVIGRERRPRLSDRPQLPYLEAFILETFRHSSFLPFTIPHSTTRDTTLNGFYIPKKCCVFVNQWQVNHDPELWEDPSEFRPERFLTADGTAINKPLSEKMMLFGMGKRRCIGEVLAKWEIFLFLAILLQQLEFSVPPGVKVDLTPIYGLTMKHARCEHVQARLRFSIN
structure (smiles),measurement,setting,value
"C[C@](O)(COc1ccc(Cl)c(F)c1)C(=O)Nc1ccc(C#N)c(C(F)(F)F)c1 [S-II, (S)-3-(4-chloro-3-fluorophenoxy)-N-(4-cyano-3-(trifluoromethyl)phenyl)-2-hydroxy-2-methylpropanamide]",IC50,[1],> 20 µM
same,clearance,[2]; oral,0.36 ± 0.12 mL/min/kg
same,half-life,[2]; oral,37 ± 26.8 h
same,Vd,"[2]; oral, read-out: Vz",1.27 ± 0.352 L/kg
same,bioavailability,"[2]; po, peroral",72.5%
same,Carcass Wt,[3]; 1 PPM,201
same,Live Wt,[3]; 1 PPM,289
same,Carcass Wt,[3]; 3 PPM,200
same,Live Wt,[3]; 3 PPM,288
same,Carcass Wt,[3]; 10 PPM,197
same,Live Wt,[3]; 10 PPM,281
same,ADFI (average daily feed intake),"[3]; Day 0-7, 1 ppm in diet",7.56
same,ADG (average daily gain),"[3]; Day 0-7, 1 ppm in diet",2.89
same,ADFI (average daily feed intake),"[3]; Day 0-7, 3 ppm in diet",7.54
same,ADG (average daily gain),"[3]; Day 0-7, 3 ppm in diet",2.37
same,ADG (average daily gain),"[3]; Day 0-7, 10 ppm in diet",2.17
same,ADFI (average daily feed intake),"[3]; Day 0-7, 10 ppm in diet, listed as SARM",7.4
same,ADG (average daily gain),"[3]; Day 0-28 (total), 1 ppm in diet",2.74
same,ADG (average daily gain),"[3]; Day 0-28 (total), 3 ppm in diet, listed as SARM",2.7
same,ADG (average daily gain),"[3]; Day 0-28 (total), 10 ppm in diet, listed as SARM",2.5
same,ADFI (average daily feed intake),"[3]; Day 0-28, 1 ppm in diet",8.28
same,ADFI (average daily feed intake),"[3]; Day 0-28, 3 ppm in diet",8.38
same,ADFI (average daily feed intake),"[3]; Day 0-28, 10 ppm in diet",7.85
same,ADFI (average daily feed intake),"[3]; Day 8-14, 1 ppm in diet",8.74
same,ADG (average daily gain),"[3]; Day 8-14, 1 ppm in diet",2.59
same,ADG (average daily gain),"[3]; Day 8-14, 3 ppm in diet",2.65
same,ADFI (average daily feed intake),"[3]; Day 8-14, 3 ppm in diet, listed as SARM",8.5
same,ADFI (average daily feed intake),"[3]; Day 8-14, 10 ppm in diet",7.89
same,ADG (average daily gain),"[3]; Day 8-14, 10 ppm in diet",2.37
same,ADFI (average daily feed intake),"[3]; Day 15-21, 1 ppm in diet",8.33
same,ADG (average daily gain),"[3]; Day 15-21, 1 ppm in diet",2.33
same,ADFI (average daily feed intake),"[3]; Day 15-21, 3 ppm in diet",8.61
same,ADG (average daily gain),"[3]; Day 15-21, 3 ppm in diet",2.65
same,ADFI (average daily feed intake),"[3]; Day 15-21, 10 ppm in diet",7.78
same,ADG (average daily gain),"[3]; Day 15-21, 10 ppm in diet",2.43
same,ADFI (average daily feed intake),"[3]; Day 22-28, 1 ppm in diet",8.51
same,ADG (average daily gain),"[3]; Day 22-28, 1 ppm in diet",3.15
same,ADFI (average daily feed intake),"[3]; Day 22-28, 3 ppm in diet",8.89
same,ADG (average daily gain),"[3]; Day 22-28, 3 ppm in diet",3.15
same,ADFI (average daily feed intake),"[3]; Day 22-28, 10 ppm in diet",8.33
same,ADG (average daily gain),"[3]; Day 22-28, 10 ppm in diet",3.03
same,Gain,"[3]; Days 0-7, 1 PPM",20.3
same,Gain,"[3]; Days 0-7, 3 PPM",16.6
same,Gain,"[3]; Days 0-7, 10 PPM",15.2
same,Gain,"[3]; Days 8-14, 1 PPM",18.2
same,Gain,"[3]; Days 8-14, 3 PPM",18.6
same,Gain,"[3]; Days 8-14, 10 PPM",16.6
same,Gain,"[3]; Days 15-21, 1 PPM",16.3
same,Gain,"[3]; Days 15-21, 3 PPM",18.5
same,Gain,"[3]; Days 15-21, 10 PPM",17.0
same,Gain,"[3]; Days 22-28, 1 PPM",22.0
same,Gain,"[3]; Days 22-28, 3 PPM",22.0
same,Gain,"[3]; Days 22-28, 10 PPM",21.2
same,"average daily gain (ADG) over the course of the study, trend",[3]; FIG. 5A,increased
same,"fat free lean gain per day, trend",[3]; FIG. 5C,increased
same,"ADG for days 21-28, trend",[3]; FIG. 5D,dramatically increased
same,improvement in lean percent,[3]; SARM-treated pigs vs control,≤ 2%
same,improvement in pounds of fat free lean,[3]; SARM-treated pigs vs control,≤ 2%
same,increase in loin eye area (LEA),[3]; SARM-treated pigs vs control,≤ 4%
same,1st rib fat,"[3]; Table 6, 1 ppm",1.47 in
same,10th rib fat,"[3]; Table 6, 1 ppm",0.78 in
same,Dress,"[3]; Table 6, 1 ppm",69.6%
same,Fat free lean,"[3]; Table 6, 1 ppm",106.9 lb
same,Heart Wt,"[3]; Table 6, 1 ppm",1.04 lb
same,Kidney Wt,"[3]; Table 6, 1 ppm",1.2 lb
same,LEA,"[3]; Table 6, 1 ppm",7.26 in^2
same,Last lumbar fat (row head printed only as 'in'),"[3]; Table 6, 1 ppm",0.77 in
same,Last rib fat,"[3]; Table 6, 1 ppm",0.9 in
same,Lean,"[3]; Table 6, 1 ppm",53.2%
same,Liver Wt,"[3]; Table 6, 1 ppm",4.58 lb
same,1st rib fat,"[3]; Table 6, 3 ppm",1.48 in
same,10th rib fat,"[3]; Table 6, 3 ppm",0.8 in
same,Dress,"[3]; Table 6, 3 ppm",69.3%
same,Fat free lean,"[3]; Table 6, 3 ppm",105.5 lb
same,Heart Wt,"[3]; Table 6, 3 ppm",1.07 lb
same,Kidney Wt,"[3]; Table 6, 3 ppm",1.18 lb
same,LEA,"[3]; Table 6, 3 ppm",7.22 in^2
same,Last lumbar fat (row head printed only as 'in'),"[3]; Table 6, 3 ppm",0.82 in
same,Last rib fat,"[3]; Table 6, 3 ppm",0.91 in
same,Lean,"[3]; Table 6, 3 ppm",52.9%
same,Liver Wt,"[3]; Table 6, 3 ppm",4.95 lb
same,1st rib fat,"[3]; Table 6, 10 ppm",1.43 in
same,10th rib fat,"[3]; Table 6, 10 ppm",0.74 in
same,Dress,"[3]; Table 6, 10 ppm",70%
same,Fat free lean,"[3]; Table 6, 10 ppm",106.7 lb
same,Heart Wt,"[3]; Table 6, 10 ppm",1.01 lb
same,Kidney Wt,"[3]; Table 6, 10 ppm",1.16 lb
same,LEA,"[3]; Table 6, 10 ppm",7.59 in^2
same,Last lumbar fat (row head printed only as 'in'),"[3]; Table 6, 10 ppm",0.74 in
same,Last rib fat,"[3]; Table 6, 10 ppm",0.86 in
same,Lean,"[3]; Table 6, 10 ppm",54.3%
same,Liver Wt,"[3]; Table 6, 10 ppm",4.84 lb
same,1st rib fat,"[3]; Table 7, 1 PPM",1.47
same,10th rib fat,"[3]; Table 7, 1 PPM",0.780
same,Dress %,"[3]; Table 7, 1 PPM",70%
same,Heart Wt,"[3]; Table 7, 1 PPM",1.04
same,Kidney Wt,"[3]; Table 7, 1 PPM",1.20
same,Last lumbar fat,"[3]; Table 7, 1 PPM",0.770
same,Last rib fat,"[3]; Table 7, 1 PPM",0.900
same,Liver Wt,"[3]; Table 7, 1 PPM",4.58
same,1st rib fat,"[3]; Table 7, 3 PPM",1.48
same,10th rib fat,"[3]; Table 7, 3 PPM",0.800
same,Dress %,"[3]; Table 7, 3 PPM",69%
same,Heart Wt,"[3]; Table 7, 3 PPM",1.07
same,Kidney Wt,"[3]; Table 7, 3 PPM",1.18
same,Last lumbar fat,"[3]; Table 7, 3 PPM",0.815
same,Last rib fat,"[3]; Table 7, 3 PPM",0.905
same,Liver Wt,"[3]; Table 7, 3 PPM",4.95
same,1st rib fat,"[3]; Table 7, 10 PPM",1.43
same,10th rib fat,"[3]; Table 7, 10 PPM",0.735
same,Dress %,"[3]; Table 7, 10 PPM",70%
same,Heart Wt,"[3]; Table 7, 10 PPM",1.01
same,Kidney Wt,"[3]; Table 7, 10 PPM",1.16
same,Last lumbar fat,"[3]; Table 7, 10 PPM",0.740
same,Last rib fat,"[3]; Table 7, 10 PPM",0.855
same,Liver Wt,"[3]; Table 7, 10 PPM",4.84
same,lb FFL,"[3]; Table 7, 1 PPM",107 lb
same,lb FFL,"[3]; Table 7, 3 PPM",106 lb
same,lb FFL,"[3]; Table 7, 10 PPM",107 lb
same,LEA,"[3]; Table 7, loin eye area, 1 PPM",7.26
same,LEA,"[3]; Table 7, loin eye area, 3 PPM",7.22
same,LEA,"[3]; Table 7, loin eye area, 10 PPM",7.59
same,L side,[3]; 1 PPM,98.0
same,R side,[3]; 1 PPM,103
same,L side,[3]; 3 PPM,97.7
same,R side,[3]; 3 PPM,102
same,L side,[3]; 10 PPM,96.8
same,R side,[3]; 10 PPM,99.8
same,lbs FFL/D,[3]; 1 PPM,0.822 lbs/D
same,lbs FFL/D,[3]; 3 PPM,0.774 lbs/D
same,lbs FFL/D,[3]; 10 PPM,0.814 lbs/D
same,"Day 0-7 F:G, effect of treatment",[3]; linear contrast,significantly increased
same,"Day 8-14 average daily feed intake (ADFI), effect of treatment",[3]; linear contrast,decreased
same,"carcass crude fat, effect of feeding","[3]; pig, in vivo",reducing
